This passage reports melting point results from patent US7560547B2, “Hydroxyalkyl cyclic diamine compounds” (Kowa Co., Ltd., priority 2002, dated 2009).

As to `Cc1cc(Br)c([N+](=O)[O-])c(Br)n1` [Example 1, 2,4-dibromo-6-methyl-3-nitropyridine], the melting point was 118 to 120 °C. The figure for `Cc1cc(Br)c(N)c(Br)n1` [Example 2, 3-amino-2,4-dibromo-6-methylpyridine] is 93 to 94 °C; for `Cc1cc(Br)c(NC(=O)CBr)c(Br)n1` [Example 3, N-[2,4-dibromo-6-methylpyridin-3-yl]-2-bromoacetamide] it is 197 to 199 °C.

Take `Cc1cc(Cl)c(NC(=O)CBr)c(Cl)n1` [Example 5, N-[2,4-dichloro-6-methylpyridin-3-yl]-2-bromoacetamide]: the melting point was in the range of 184 to 185 °C. As for `CSc1cc(C)nc(SC)c1NC(=O)CN1CCN(CCO)CC1` [Example 7, 2-[4-(2-hydroxyethyl)piperazin-1-yl]-N-[2,4-bis(methylthio)-6-methylpyridin-3-yl]acetamide], the figure is 119 to 120 °C.

As a reminder, the melting point is the temperature of the solid-liquid transition.
